These results are taken from patent US9200051B2, “Peptide compound” (TAKEDA PHARMACEUTICAL COMPANY LIMITED, priority 2013, dated 2015).

Holding throughout (assay type): cell-based
Test [1] addresses T1, human GIPR (Homo sapiens, UniProt P48546).
T1 construct: expressed in transfected cells; host or cells: CHO-K1 (CRE-LUC/CHO-K1), plasmid hGIPR/pMSRα-neo
T1 sequence (P48546 22-466): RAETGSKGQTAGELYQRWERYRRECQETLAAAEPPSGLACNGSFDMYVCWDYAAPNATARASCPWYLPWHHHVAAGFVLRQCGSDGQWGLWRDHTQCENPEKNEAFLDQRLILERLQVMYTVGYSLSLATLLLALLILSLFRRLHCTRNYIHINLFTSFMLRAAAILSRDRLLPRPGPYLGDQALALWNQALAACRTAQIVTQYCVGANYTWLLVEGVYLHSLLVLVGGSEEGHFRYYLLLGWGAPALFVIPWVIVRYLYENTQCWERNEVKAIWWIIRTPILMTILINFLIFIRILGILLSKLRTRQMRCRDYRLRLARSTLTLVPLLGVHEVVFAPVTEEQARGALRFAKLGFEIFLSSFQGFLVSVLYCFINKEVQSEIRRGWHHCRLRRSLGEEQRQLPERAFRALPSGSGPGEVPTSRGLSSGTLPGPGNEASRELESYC
Nature of the test: Agonist activity against human GIPR, CRE-luciferase reporter assay (rise in intracellular cAMP) in hGIPR/CRE-LUC/CHO-K1 cells. From the text:
(§1) Evaluation of agonist activity against human GIPR, human GLP-1R and human glucagon R using rise in intracellular cAMP concentration as index
The human GIPR gene having a sequence identical to the sequence of GenBank Accession No. U39231 was cloned into pMSRα-neo vector to prepare hGIPR/pMSRα-neo.
(§2) The luciferase reporter gene having an upstream cAMP response sequence was introduced to CHO-K1 cells to construct CRE-LUC/CHO-K1 cells.
The plasmid hGIPR/pMSRα-neo obtained in (1) was introduced to the CRE-LUC/CHO-K1 cells obtained in (2) to obtain transformants. Next, a cell line induced to express luciferase, i.e., hGIPR/CRE-LUC/CHO-K1 cells, were selected from the obtained transformants by the addition of GIP.
(§3) The hGIPR/CRE-LUC/CHO-K1 cells were inoculated at a cell density of 25 μL/well (5×10^4 cells/well) to a 384-well white plate (Corning), and cultured overnight in Ham F12 medium containing 10% fetal bovine serum, 100 U/mL penicillin and 100 μg/mL streptomycin in a CO2 incubator of 37° C. A medium containing a test compound was added at a concentration of 5 μL/well to the cells, and the resultant cells were incubated for 4 hours in a CO2 incubator of 37° C. to give the final concentration of 1 μM. PicaGene LT7.5 (Toyo Ink Co., Ltd.) was added thereto at a concentration of 30 μL/well, and the mixture was shaken with light shielded. After 30 minutes, the luciferase activity was measured using a plate reader Envision (PerkinElmer). The luciferase activity in the presence of 10 nM GIP was defined as 100%, and the luciferase activity from the addition of DMSO instead of the test compound was defined as 0%. The GIPR agonist activity was calculated with a rise in intracellular cAMP concentration as an index.

Test [2] concerns the target T2, human GLP-1R (Homo sapiens, UniProt P43220).
T2 construct: expressed in transfected cells; host or cells: CHO-K1, plasmids hGLP-1/pIRESneo3 and Cre-luc(Zeo)
Put plainly: Agonist activity against human GLP-1R, CRE-luciferase reporter assay in hGLP-1R/CRE-luc/CHO-K1 cells.
Description: as §1
Four copies of the cAMP response sequence and the Zeocin resistance gene were introduced to pGL3(R2.2)-Basic Vector (Promega) to construct Cre-luc(Zeo) reporter plasmid.
The human GLP-1R gene having a sequence identical to the sequence of GenBank Accession No. NM_002062 was cloned into pIRESneo3 vector to prepare hGLP-1/pIRESneo3.
The Cre-luc(Zeo) obtained in (3) and the plasmid hGLP-1/pIRESneo3 obtained in (5) were introduced to CHO-K1 cells to obtain transformants. Next, a cell line induced to express luciferase, i.e., hGLP-1R/CRE-luc/CHO-K1 cells, were selected from the obtained transformants by the addition of GLP-1.
as §3
The GLP-1R agonist activity was assayed in the same way as above using the hGLP-1R/CRE-luc/CHO-K1 cells. The luciferase activity in the presence of 10 nM GLP-1 was defined as 100%, and the luciferase activity from the addition of DMSO instead of the test compound was defined as 0%. The GLP-1R agonist activity was calculated with a rise in intracellular cAMP concentration as an index.

Test [3] deals with T3, human glucagon R (Homo sapiens, UniProt P47871).
T3 construct: expressed in transfected cells; host or cells: CHO-K1 (CRE-LUC/CHO-K1), plasmid hGlucagonR/pMSRα-neo
Nature of the test: Agonist activity against human glucagon R, CRE-luciferase reporter assay in hGlucagonR/CRE-LUC/CHO-K1 cells.
Description: as §1, §2
The human glucagon R gene having a sequence identical to the sequence of GenBank Accession No. NM_000160 was cloned into pMSRα-neo vector to prepare hGlucagonR/pMSRα-neo.
The plasmid hGlucagonR/pMSRα-neo obtained in (7) was introduced to the CRE-LUC/CHO-K1 cells obtained in (2) to obtain transformants. Next, a cell line induced to express luciferase, i.e., hGlucagonR/CRE-LUC/CHO-K1 cells, were selected from the obtained transformants by the addition of glucagon.
as §3
The glucagon R agonist activity was assayed in the same way as above using the hGlucagonR/CRE-LUC/CHO-K1 cells. The luciferase activity in the presence of 10 nM glucagon was defined as 100%, and the luciferase activity from the addition of DMSO instead of the test compound was defined as 0%. The glucagon agonist activity was calculated with a rise in intracellular cAMP concentration as an index.
For orientation: Reporter assays use an easily measured gene product as a stand-in for the process of interest.

Where [4] appears, read: hGIPR/CRE-LUC/CHO-K1 cells, 4 hours incubation, 10 nM GIP = 100%, read-out: Agonist activity (EC50) hGIPR.
The mark [5] stands for this setting: hGLP-1R/CRE-luc/CHO-K1 cells, 4 hours incubation, 10 nM GLP-1 = 100%, read-out: Agonist activity (EC50) hGLP-1R.
The mark [6] stands for this setting: hGlucagonR/CRE-LUC/CHO-K1 cells, 4 hours incubation, 10 nM glucagon = 100%, read-out: Agonist activity (EC50) hGCGR.

pEC50: −log10 of the molar value. Like-named read-outs stand apart in the source and are kept apart here. Square brackets hold non-standard residues; d marks the D form. Peptide text beside a SMILES is read from it. * marks the point of attachment. Cyclopropanecarbonyl = O=C(C1CC1)*; αMeF = C[C@](N)(Cc1ccccc1)C(=O)O; Aib = CC(C)(N)C(=O)O

T3 sequence (P47871 26-477): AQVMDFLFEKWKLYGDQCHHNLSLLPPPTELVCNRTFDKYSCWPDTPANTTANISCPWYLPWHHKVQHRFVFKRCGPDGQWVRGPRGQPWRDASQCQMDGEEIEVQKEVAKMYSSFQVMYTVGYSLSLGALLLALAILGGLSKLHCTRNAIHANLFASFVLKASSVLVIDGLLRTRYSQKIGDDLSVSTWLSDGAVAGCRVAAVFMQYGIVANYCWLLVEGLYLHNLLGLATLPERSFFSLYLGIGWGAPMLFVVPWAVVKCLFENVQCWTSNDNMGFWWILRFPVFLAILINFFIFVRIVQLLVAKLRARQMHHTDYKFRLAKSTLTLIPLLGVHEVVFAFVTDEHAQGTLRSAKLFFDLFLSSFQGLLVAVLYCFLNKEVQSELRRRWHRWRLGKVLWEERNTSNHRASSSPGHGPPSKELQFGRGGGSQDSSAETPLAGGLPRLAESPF
T2 sequence (P43220 24-463): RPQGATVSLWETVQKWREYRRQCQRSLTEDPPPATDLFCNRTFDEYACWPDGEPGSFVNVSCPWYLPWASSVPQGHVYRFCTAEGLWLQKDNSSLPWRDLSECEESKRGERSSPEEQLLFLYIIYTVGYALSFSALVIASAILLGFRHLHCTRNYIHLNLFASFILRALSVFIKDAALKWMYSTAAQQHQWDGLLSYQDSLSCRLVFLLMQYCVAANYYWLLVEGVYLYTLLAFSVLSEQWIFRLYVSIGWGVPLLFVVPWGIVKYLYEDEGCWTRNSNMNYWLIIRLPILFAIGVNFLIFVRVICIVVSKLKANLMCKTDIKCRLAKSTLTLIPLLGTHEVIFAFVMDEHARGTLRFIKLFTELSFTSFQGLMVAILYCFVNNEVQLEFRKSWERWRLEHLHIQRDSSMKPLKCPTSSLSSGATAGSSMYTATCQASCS

By pEC50 is commonly meant −log10 of the EC50, conventionally taken in molar units. As for `CC[C@H](C)[C@H](NC(=O)C(C)(C)NC(=O)[C@H](Cc1ccc(O)cc1)NC(=O)[C@H](CC(=O)O)NC(=O)[C@H](CO)NC(=O)[C@@H](NC(=O)[C@](C)(Cc1ccccc1)NC(=O)[C@@H](NC(=O)CNC(=O)[C@H](CCC(=O)O)NC(=O)C(C)(C)NC(=O)[C@H](Cc1ccc(O)cc1)NC(=O)C1CC1)[C@@H](C)O)[C@@H](C)O)C(=O)NC(C)(C)C(=O)N[C@@H](CC(C)C)C(=O)N[C@@H](CC(=O)O)C(=O)N[C@@H](CCCCN)C(=O)N[C@@H](CCC(N)=O)C(=O)N[C@@H](C)C(=O)N[C@@H](CCC(N)=O)C(=O)N[C@@H](C)C(=O)N[C@@H](CCC(=O)O)C(=O)N[C@@H](Cc1ccccc1)C(=O)N[C@H](C(=O)N[C@@H](CCCCN)C(=O)N[C@@H](Cc1c[nH]c2ccccc12)C(=O)N[C@@H](CC(C)C)C(=O)N[C@@H](CC(C)C)C(=O)N[C@@H](CCCCN)C(=O)NCC(=O)NCC(=O)N1CCC[C@H]1C(=O)N[C@@H](CO)C(=O)N[C@@H](CO)C(=O)NCC(=O)N[C@@H](C)C(=O)N1CCC[C@H]1C(=O)N1CCC[C@H]1C(=O)N1CCC[C@H]1C(=O)N[C@@H](CO)C(=O)N[C@@H](CCCCN)C(N)=O)C(C)C` [Example 21] (Cyclopropanecarbonyl-Y[Aib]EGT[αMeF]TSDY[Aib]I[Aib]LDKQAQAEFVKWLLKGGPSSGAPPPSK-NH2), the results for the negative logarithm of the EC50 (pEC50) in test [1] (setting [4]), in test [2] (setting [5]) and in test [3] (setting [6]) were 10.62, 10.26 and under 6.00, respectively.
Turning to `CC[C@H](C)[C@H](NC(=O)[C@H](C)NC(=O)[C@H](Cc1ccc(O)cc1)NC(=O)[C@H](CC(=O)O)NC(=O)[C@H](CO)NC(=O)[C@@H](NC(=O)[C@](C)(Cc1ccccc1)NC(=O)[C@@H](NC(=O)CNC(=O)[C@H](CCC(=O)O)NC(=O)C(C)(C)NC(=O)[C@@H](N)Cc1ccc(O)cc1)[C@@H](C)O)[C@@H](C)O)C(=O)NC(C)(C)C(=O)N[C@@H](CC(C)C)C(=O)N[C@@H](CC(=O)O)C(=O)N[C@@H](CCCCN)C(=O)N[C@@H](CCC(N)=O)C(=O)N[C@@H](C)C(=O)N[C@@H](CCC(N)=O)C(=O)N[C@@H](C)C(=O)N[C@@H](CCC(=O)O)C(=O)N[C@@H](Cc1ccccc1)C(=O)N[C@H](C(=O)N[C@@H](CCCCN)C(=O)N[C@@H](Cc1c[nH]c2ccccc12)C(=O)N[C@@H](CC(C)C)C(=O)N[C@@H](CC(C)C)C(=O)N[C@@H](CCCCN)C(=O)NCC(=O)NCC(=O)N1CCC[C@H]1C(=O)N[C@@H](CO)C(=O)N[C@@H](CO)C(=O)NCC(=O)N[C@@H](C)C(=O)N1CCC[C@H]1C(=O)N1CCC[C@H]1C(=O)N1CCC[C@H]1C(=O)N[C@@H](CO)C(N)=O)C(C)C` [Example 5] (H-Y[Aib]EGT[αMeF]TSDYAI[Aib]LDKQAQAEFVKWLLKGGPSSGAPPPS-NH2), the values for the pEC50 in test [1], in test [2] and in test [3] were 11.26, 11.14 and under 6.00, respectively.
Take `CC[C@H](C)[C@H](NC(=O)C(C)(C)NC(=O)[C@H](Cc1ccc(O)cc1)NC(=O)[C@H](CC(=O)O)NC(=O)[C@H](CO)NC(=O)[C@@H](NC(=O)[C@](C)(Cc1ccccc1)NC(=O)[C@@H](NC(=O)CNC(=O)[C@H](CCC(=O)O)NC(=O)C(C)(C)NC(=O)[C@@H](N)Cc1ccc(O)cc1)[C@@H](C)O)[C@@H](C)O)C(=O)N[C@@](C)(Cc1ccccc1)C(=O)N[C@@H](CC(C)C)C(=O)N[C@@H](CC(=O)O)C(=O)N[C@@H](CCCCN)C(=O)N[C@@H](CCC(N)=O)C(=O)N[C@@H](C)C(=O)N[C@@H](CCC(N)=O)C(=O)N[C@@H](C)C(=O)N[C@@H](CCC(=O)O)C(=O)N[C@@H](Cc1ccccc1)C(=O)N[C@H](C(=O)N[C@@H](CCCCN)C(=O)N[C@@H](Cc1c[nH]c2ccccc12)C(=O)N[C@@H](CC(C)C)C(=O)N[C@@H](CC(C)C)C(=O)N[C@@H](CCCCN)C(=O)NCC(=O)NCC(=O)N1CCC[C@H]1C(=O)N[C@@H](CO)C(=O)N[C@@H](CO)C(=O)NCC(=O)N[C@@H](C)C(=O)N1CCC[C@H]1C(=O)N1CCC[C@H]1C(=O)N1CCC[C@H]1C(=O)N[C@@H](CO)C(=O)N[C@@H](CCCCN)C(N)=O)C(C)C` [Example 13] (H-Y[Aib]EGT[αMeF]TSDY[Aib]I[αMeF]LDKQAQAEFVKWLLKGGPSSGAPPPSK-NH2): the pEC50 in test [1] is 11.14; in test [2] it was 10.96; in test [3] it was under 6.00.
`CC[C@H](C)[C@H](NC(=O)[C@H](C)NC(=O)[C@H](Cc1ccc(O)cc1)NC(=O)[C@H](CC(=O)O)NC(=O)[C@H](CO)NC(=O)[C@@H](NC(=O)[C@](C)(Cc1ccccc1)NC(=O)[C@@H](NC(=O)CNC(=O)[C@H](CCC(=O)O)NC(=O)C(C)(C)NC(=O)[C@@H](N)Cc1ccc(O)cc1)[C@@H](C)O)[C@@H](C)O)C(=O)NC(C)(C)C(=O)N[C@@H](CC(C)C)C(=O)N[C@@H](CC(=O)O)C(=O)N[C@@H](CCCCN)C(=O)N[C@@H](CCC(N)=O)C(=O)N[C@@H](C)C(=O)N[C@@H](CCC(N)=O)C(=O)N[C@@H](CO)C(=O)N[C@@H](CCC(=O)O)C(=O)N[C@@H](Cc1ccccc1)C(=O)N[C@H](C(=O)N[C@@H](CCCCN)C(=O)N[C@@H](Cc1c[nH]c2ccccc12)C(=O)N[C@@H](CC(C)C)C(=O)N[C@@H](CC(C)C)C(=O)N[C@@H](CCCCN)C(=O)NCC(=O)NCC(=O)N1CCC[C@H]1C(=O)N[C@@H](CO)C(=O)N[C@@H](CO)C(=O)NCC(=O)N[C@@H](C)C(=O)N1CCC[C@H]1C(=O)N1CCC[C@H]1C(=O)N1CCC[C@H]1C(=O)N[C@@H](CO)C(N)=O)C(C)C` [Example 7] (H-Y[Aib]EGT[αMeF]TSDYAI[Aib]LDKQAQSEFVKWLLKGGPSSGAPPPS-NH2): the results for the pEC50 in test [1] (setting [4]), in test [2] (setting [5]) and in test [3] (setting [6]) were 11.16, 11.06 and under 6.00, respectively.
